System: oligodendrocyte precursor cells (OPCs)
Test: OPC differentiation into mature oligodendric cells (MBP / PDGFRa immunostaining)
Type: cell-based, rat
Experimental: The OPCs were purified from P7 rat brain cortices. Rodent brain cortices were diced and dissociated with papain at 37° C. After trituration, […] were resuspended in a panning buffer and incubated at room temperature sequentially on the three immunopanning dishes: Ran-2 and GaIC were used for negative selection before positive selection with 04. OPCs were released from the panning dish using 0.05% Trypsin. OPCs were seeded onto PPL-coated coverslips at 200,000 per 25 mm circle coverslip in a chemically defined culture medium with PDGFa overnight.
Sodium Butyrate (NaB) was dissolved in sterile water and added into culture medium the next day to reach desire concentration. OPC coverslips were placed into 6-well dishes, 1 ml of NaB-containing culture medium without PDGFa was added to each well. Cells were cultured for 48 hours before fixation and immunostaining. PDGFRa antibody identifies OPCs and MBP (myelin basic protein) antibody labels differentiated oligodendrocytes. Percentage of MBP-positive cells out of all PDGFRa- and MBP-positives cells were quantified.
Examining a dose response for sodium butyrate on purified oligodendroglial cultures. Sodium butyrate was added to purified oligodendroglial cultures and cells were analyzed after 48 hours of treatment for effects on survival, proliferation and differentiation. Oligodendrocyte precursor cells were immunostained with PDGFRa shown in green, oligodendrocytes were immunostained with MBP in red, cell nuclei were labeled with DAPI in blue. Percentage of MBP-positive oligodendrocytes among all oligodendroglial cells was quantified at various concentrations of sodium butyrate. The asterisks represent significance based on Students t-test with the respective controls (*p<0.05, **p<0.01)

For `CCCC(=O)[O-].[Na+]` [sodium butyrate], which “number of oligodendric cells from OPC compared to the control (MBP immunohistochemistry)” value (250 μM sodium butyrate, FIG. 7) is on record?
Its value is “statistically significant increase”.

What about the “fold increase in the numbers of differentiated and matured oligodendric cells as compared to the control” value (250 μM sodium butyrate, purified OPCs from P7 rat brain cortices, 48 hours, FIG. 1) of the same compound?
Its value is 2.6 fold.

What about the “effect to promote OPC to differentiate into mature oligodendric cells” value (dose response 50 nM to 250 μM, 48 hours, FIG. 1) of the same compound?
The value was “dose-dependent manner”.

And the “increase in Oligo cells as compared to the control” value (each of the concentrations of sodium butyrate (50 nM, 500 nM, 5 μM, 50 μM, 250 μM), 48 hours, Student's t-test, FIG. 1)?
Its value is “statistically significant increase”.
